# Reference: PubChem BioAssay AID2060509 (Molecular Pharmacology Branch, DTP, NCI, 2025)
# Test system: 485176-168-R4-J1-PDC spheroids with HUVEC/MSC, viability
# Experiment: Anticancer human tumor 485176-168-R4-J1-PDC patient-derived pancreatic adenocarcinoma cell line growth inhibition [GQUAD]
# Details: for IC50: curve of first compound; for viability, T/C: stronger effect = lower value
# How it was run: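 Tumor cells were grown as complex spheroids with HUVEC endothelial cells and mesenchymal stem cells as stroma. G-quadruplex stabilizers were combined with targeted agents over half-log dilutions from near the clinical Cmax, or from 10 microM.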
# [1] = second compound 0.0316 µM, first compound 0.0316 µM
# [2] = second compound 0.0316 µM, first compound 0.1 µM
# [3] = second compound 0.0316 µM, first compound 0.316 µM
# [4] = second compound 0.0316 µM, first compound 1 µM
# [5] = second compound 0.0316 µM, first compound 3.16 µM
# [6] = second compound 0.0316 µM, first compound 10 µM
# [7] = second compound 0.1 µM, first compound 0.0316 µM
# [8] = second compound 0.1 µM, first compound 0.1 µM
# [9] = second compound 0.1 µM, first compound 0.316 µM
# [10] = second compound 0.1 µM, first compound 1 µM
# [11] = second compound 0.1 µM, first compound 3.16 µM
# [12] = second compound 0.1 µM, first compound 10 µM
# [13] = second compound 0.316 µM, first compound 0.0316 µM
# [14] = second compound 0.316 µM, first compound 0.1 µM
# [15] = second compound 0.316 µM, first compound 0.316 µM
# [16] = second compound 0.316 µM, first compound 1 µM
# [17] = second compound 0.316 µM, first compound 3.16 µM
# [18] = second compound 0.316 µM, first compound 10 µM
# [19] = second compound 1 µM, first compound 0.0316 µM
# [20] = second compound 1 µM, first compound 0.1 µM
# [21] = second compound 1 µM, first compound 0.316 µM
# [22] = second compound 1 µM, first compound 1 µM
# [23] = second compound 1 µM, first compound 3.16 µM
# [24] = second compound 1 µM, first compound 10 µM
# [25] = second compound 3.16 µM, first compound 0.0316 µM
# [26] = second compound 3.16 µM, first compound 0.1 µM
# [27] = second compound 3.16 µM, first compound 0.316 µM
# [28] = second compound 3.16 µM, first compound 1 µM
# [29] = second compound 3.16 µM, first compound 3.16 µM
# [30] = second compound 3.16 µM, first compound 10 µM
# [31] = second compound 10 µM, first compound 0.0316 µM
# [32] = second compound 10 µM, first compound 0.1 µM
# [33] = second compound 10 µM, first compound 0.316 µM
# [34] = second compound 10 µM, first compound 1 µM
# [35] = second compound 10 µM, first compound 3.16 µM
# [36] = second compound 10 µM, first compound 10 µM
# 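Note: spheroids exposed to compounds for seven days before readout.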
# 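Throughout, for viability, T/C: percent viability relative to DMSO vehicle control wells as 100%.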
structure (smiles),measurement,setting,value
C#Cc1c(F)ccc2cc(O)cc(-c3ncc4c(N5CC6CCC(C5)N6)nc(OCC56CCCN5CC(F)C6)nc4c3F)c12 (centres undefined) + CN(C)c1ccc(Nc2c3ccc(NC(=O)CCN4CCCC4)cc3nc3cc(NC(=O)CCN4CCCC4)ccc23)cc1,IC50,second compound 0.0316 µM,> 10 µM
same,IC50,second compound 0.1 µM,> 10 µM
same,IC50,second compound 0.316 µM,> 10 µM
same,IC50,second compound 1 µM,> 10 µM
same,IC50,second compound 3.16 µM,> 10 µM
same,IC50,second compound 10 µM,> 10 µM
same,"viability, T/C",[1],119%
same,"viability, T/C",[2],106%
same,"viability, T/C",[3],103%
same,"viability, T/C",[4],106%
same,"viability, T/C",[5],95.6%
same,"viability, T/C",[6],98.2%
same,"viability, T/C",[7],112%
same,"viability, T/C",[8],99.5%
same,"viability, T/C",[9],91.9%
same,"viability, T/C",[10],97.9%
same,"viability, T/C",[11],120%
same,"viability, T/C",[12],116%
same,"viability, T/C",[13],97.4%
same,"viability, T/C",[14],81.8%
same,"viability, T/C",[15],105%
same,"viability, T/C",[16],102%
same,"viability, T/C",[17],95.5%
same,"viability, T/C",[18],85.5%
same,"viability, T/C",[19],91.6%
same,"viability, T/C",[20],90.8%
same,"viability, T/C",[21],99.3%
same,"viability, T/C",[22],111%
same,"viability, T/C",[23],94.6%
same,"viability, T/C",[24],94.3%
same,"viability, T/C",[25],113%
same,"viability, T/C",[26],96.2%
same,"viability, T/C",[27],103%
same,"viability, T/C",[28],94.4%
same,"viability, T/C",[29],99.4%
same,"viability, T/C",[30],78.2%
same,"viability, T/C",[31],89.8%
same,"viability, T/C",[32],104%
same,"viability, T/C",[33],82.5%
same,"viability, T/C",[34],91.9%
same,"viability, T/C",[35],70.8%
same,"viability, T/C",[36],54.3%
CCCS(=O)(=O)Nc1ccc(F)c(C(=O)c2c[nH]c3ncc(-c4ccc(Cl)cc4)cc23)c1F + Cc1cnc(CNC(=O)c2c(=O)c3ccc(N4CCCN(C)CC4)nc3n3c2sc2ccccc23)cn1,IC50,second compound 0.0316 µM,> 10 µM
same,IC50,second compound 0.1 µM,> 10 µM
same,IC50,second compound 0.316 µM,> 10 µM
same,IC50,second compound 1 µM,< 0.0316 µM
same,IC50,second compound 3.16 µM,< 0.0316 µM
same,IC50,second compound 10 µM,< 0.0316 µM
same,"viability, T/C",[1],95.8%
same,"viability, T/C",[2],77.4%
same,"viability, T/C",[3],82.9%
same,"viability, T/C",[4],81.8%
same,"viability, T/C",[5],92.8%
same,"viability, T/C",[6],66%
same,"viability, T/C",[7],63.8%
same,"viability, T/C",[8],68.2%
same,"viability, T/C",[9],60.2%
same,"viability, T/C",[10],80.3%
same,"viability, T/C",[11],76.3%
same,"viability, T/C",[12],49.7%
same,"viability, T/C",[13],55.9%
same,"viability, T/C",[14],55.3%
same,"viability, T/C",[15],51.2%
same,"viability, T/C",[16],56.4%
same,"viability, T/C",[17],57.8%
same,"viability, T/C",[18],49.9%
same,"viability, T/C",[19],45.4%
same,"viability, T/C",[20],56.1%
same,"viability, T/C",[21],47%
same,"viability, T/C",[22],41.4%
same,"viability, T/C",[23],48.9%
same,"viability, T/C",[24],35.4%
same,"viability, T/C",[25],45.1%
same,"viability, T/C",[26],43.5%
same,"viability, T/C",[27],43.6%
same,"viability, T/C",[28],44.3%
same,"viability, T/C",[29],43.9%
same,"viability, T/C",[30],40.9%
same,"viability, T/C",[31],39.1%
same,"viability, T/C",[32],36.3%
same,"viability, T/C",[33],30.1%
same,"viability, T/C",[34],37.2%
same,"viability, T/C",[35],39.6%
same,"viability, T/C",[36],35.4%
